From patent US20070082880A1 (priority 2005, published 2007)

Key:
PKCθ = PKCθ (Homo sapiens, UniProt Q04759); test: PKCθ Scintiplate Assay; type: biochemical; settings: average value when one or more samples were tested
Description: This assay detects the phosphorylation of a biotinylated substrate by kinase utilizing radiolabeled ATP (ATP γ P33). The enzyme is either recombinant full length PKCθ (Panvera, P2996) or the purified recombinant active kinase domain of full length PKCθ (amino acids 362-706). The substrate in this assay is a biotinylated peptide with a sequence of biotin-[…]-CONH2. The assay buffer is composed of 100 mM Hepes, pH7.5, 2 mM MgCl2, 20 mM β-glycerophosphate and 0.008% TritonX 100. A reaction mixture of ATP, ATP γ P33 (PerkinElmer), DTT, lipid activator, and the enzyme is prepared in the assay buffer and added to a 96 well polypropylene plate. The compound (diluted in DMSO in a separate 96-well polypropylene plate) is added to the reaction mixture and incubated at room temperature. Following the incubation, the peptide substrate is added to the reaction mixture to initiate the enzymatic reaction. The reaction is terminated with the addition of a stop solution (10 mM EDTA, 0.2% TritonX100, and 100 mM NaHPO4) and transferred from the assay plate to a washed streptavidin-coated 96 well scintiplate (PerkinElmer). The scintiplate is incubated at room temperature, washed in PBS with 0.1% TritonX 100, and counted in the 1450 Microbeta Trilux (Wallac, Version 2.60). Counts are recorded for each well as corrected counts per minute (CCPM). The counts are considered corrected because they are adjusted according to a P33 normalization protocol, which corrects for efficiency and background differences between the instrument detectors (software version 4.40.01).

[1] = biological target: T1, human PKCθ full length enzyme (Homo sapiens, UniProt Q04759); test: PKCθ IMAP Assay; type: biochemical; settings: average value when one or more samples were tested; ATP 6 uM, PKCθ 1 nM
T1 construct: human PKCθ full length enzyme (Panvera Catalog No. P2996); purchased Panvera P2996
Procedure, shortened: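 IMAP fluorescence polarization after 20 min with binding beads measured phosphorylation of 100 nM 5FAM-peptide. Reactions held 1 nM full-length human PKCθ, 6 uM ATP, 5% DMSO and DTT-containing buffer, 25 min at room temperature. Compounds tested as 2:1 serial dilutions; controls lacked ATP or enzyme.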

Chain of PKCθ (Q04759 362-706 limits assumed): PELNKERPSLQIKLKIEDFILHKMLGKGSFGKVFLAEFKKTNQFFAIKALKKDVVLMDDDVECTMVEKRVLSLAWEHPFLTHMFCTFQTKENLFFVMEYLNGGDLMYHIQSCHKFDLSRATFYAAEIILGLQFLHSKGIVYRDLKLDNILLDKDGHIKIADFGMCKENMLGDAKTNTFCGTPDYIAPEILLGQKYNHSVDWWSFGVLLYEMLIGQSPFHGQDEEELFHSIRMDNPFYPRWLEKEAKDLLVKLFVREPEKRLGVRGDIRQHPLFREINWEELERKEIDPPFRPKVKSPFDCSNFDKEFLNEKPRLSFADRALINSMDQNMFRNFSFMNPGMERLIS
T1 sequence (Q04759 whole entry): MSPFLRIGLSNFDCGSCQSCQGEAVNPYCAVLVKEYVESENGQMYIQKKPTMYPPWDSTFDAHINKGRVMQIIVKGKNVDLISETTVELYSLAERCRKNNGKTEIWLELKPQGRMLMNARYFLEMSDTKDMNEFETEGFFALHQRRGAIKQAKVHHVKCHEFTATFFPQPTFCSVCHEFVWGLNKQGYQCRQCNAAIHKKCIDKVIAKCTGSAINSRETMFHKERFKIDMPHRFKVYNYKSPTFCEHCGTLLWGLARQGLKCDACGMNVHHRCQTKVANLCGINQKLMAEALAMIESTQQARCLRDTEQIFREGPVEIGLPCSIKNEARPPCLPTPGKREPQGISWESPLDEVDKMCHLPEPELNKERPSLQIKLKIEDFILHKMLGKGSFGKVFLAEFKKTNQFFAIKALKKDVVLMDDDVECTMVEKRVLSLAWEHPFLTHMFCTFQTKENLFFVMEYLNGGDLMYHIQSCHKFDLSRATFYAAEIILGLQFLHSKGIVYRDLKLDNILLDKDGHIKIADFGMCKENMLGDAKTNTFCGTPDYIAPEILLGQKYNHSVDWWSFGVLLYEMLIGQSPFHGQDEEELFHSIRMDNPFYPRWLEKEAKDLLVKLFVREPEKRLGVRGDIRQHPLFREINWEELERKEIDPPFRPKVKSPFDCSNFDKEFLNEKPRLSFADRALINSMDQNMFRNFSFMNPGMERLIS

IC50 (PKCθ) [nM]	IC50 [1] [nM]	melting point [°C]	SMILES
370	400	251 to 253	N#Cc1cnc2sc(-c3ccc(CN4CCOCC4)cc3)cc2c1Nc1ccc2[nH]ccc2c1 [Compound 101, 4-(1H-indol-5-ylamino)-2-[(4-morpholin-4-ylmethyl)phenyl]thieno[2,3-b]pyridine-5-carbonitrile]
27	34	> 260	N#Cc1cnc2sc(-c3ccc(CN)cc3)cc2c1Nc1ccc2[nH]ccc2c1 [Compound 188, 2-[4-(aminomethyl)phenyl]-4-(1H-indol-5-ylamino)thieno[2,3-b]pyridine-5-carbonitrile]

Further lines, the compound ahead of its results:

SMILES	IC50 (PKCθ) [nM]	IC50 [1] [nM]	melting point [°C]
N#Cc1cnc2sc(-c3ccccc3)cc2c1Nc1ccc2[nH]ccc2c1 [Compound 107, 4-(1H-indol-5-ylamino)-2-phenylthieno[2,3-b]pyridine-5-carbonitrile]	79	460	> 245
CN1CCN(Cc2ccc(-c3cc4c(Nc5cccc6[nH]ccc56)c(C#N)cnc4s3)cc2)CC1 [Compound 137, 4-(1H-indol-4-ylamino)-2-{4-[(4-methylpiperazin-1-yl)methyl]phenyl}thieno[2,3-b]pyridine-5-carbonitrile]	82	52	> 245
CN1CCN(Cc2cccc(-c3cc4c(Nc5cccc6[nH]ccc56)c(C#N)cnc4s3)c2)CC1 [Compound 140, 4-(1H-indol-4-ylamino)-2-{3-[(4-methylpiperazin-1-yl)methyl]phenyl}thieno[2,3-b]pyridine-5-carbonitrile]	34	22	> 245
CN1CCN(Cc2ccccc2-c2cc3c(Nc4ccc5[nH]ccc5c4)c(C#N)cnc3s2)CC1 [Compound 185, 4-(1H-indol-5-ylamino)-2-{2-[(4-methylpiperazin-1-yl)methyl]phenyl} thieno[2,3-b]pyridine-5-carbonitrile]	530	–	226 to 228
CN1CCN(Cc2ccc(-c3cc4c(Nc5ccc6[nH]ccc6c5)c(C#N)cnc4s3)nc2)CC1 [Compound 203, 4-(1H-indol-5-ylamino)-2-{5-[(4-methylpiperazin-1-yl)methyl]pyridine-2-yl}thieno[2,3-b]pyridine-5-carbonitrile]	110	–	> 245
CN1CCN(CCC#Cc2csc3ncc(C#N)c(Nc4ccc5[nH]ccc5c4)c23)CC1 [Compound 244, 4-(1H-indol-5-ylamino)-3-[4-(4-methylpiperazin-1-yl)but-1-yn-1-yl]thieno[2,3-b]pyridine-5-carbonitrile]	560	570	184 to 186
